Reference: US6451832B2, “Benzimidazoles with antithrombotic activity” (Boehringer Ingelheim Pharma KG, priority 1999, dated 2002)

How the values were obtained:
[1] = tested on: human citrated plasma; assay: Prolongation of the aPTT time in human citrated plasma (Biomatic B10 coagulometer); format: biochemical; conditions: concentration at which the aPTT time is doubled compared with the control, 37° C.
Protocol: were investigated as follows for their effects on prolonging the aPTT time:
Materials: plasma, from human citrated blood. PTT reagent, Boehringer Mannheim (524298), Calcium solution (0.025 mol/l), Behring Werke, Marburg (ORH 056/57), Diethylbarbiturate acetate buffer, Behring Werke, Marburg (ORWH 60/61), Biomatic B10 coagulometer, Desaga, Wiesloch.
The aPTT time was determined using a Biomatic B10 coagulometer made by Messrs. Desaga.
The test substance was placed in the test tubes prescribed by the manufacturer together with 0.1 ml of human citrated plasma and 0.1 ml of PTT reagent. The mixture was incubated for three minutes at 37° C. The clotting reaction was started by the addition of 0.1 ml of calcium solution. The time is measured using the apparatus from the addition of the calcium solution up to the clotting of the mixture. Mixtures to which 0.1 ml of DBA buffer were added were used as the controls.
According to the definition, a dosage-activity curve was used to determine the effective concentration of the substance, i.e. the concentration at which the aPTT time is doubled compared with the control.

[2] = Oral resorption of prodrugs

oral resorption [2] | Compound | aPTT time (ED200 in μM) [1] [µM]
 | Cl.Cl.Cn1c(CNc2ccc(C(=N)N)cc2)nc2cc(C(C)(NCC(=O)O)C(=O)N3CC=CC3)ccc21 (centres unmarked) [C, 2-(4-amidinophenylaminomethyl)-1-methyl-5-[1-(carboxymethylamino)-1-(2,5-dihydropyrrolocarbonyl)-ethyl]-benzimidazole-dihydrochloride] | 0.22
good oral resorption | CCCOC(=O)CN[C@@](C)(C(=O)N1CCCC1)c1ccc2c(c1)nc(CNc1ccc(C(=N)NC(=O)c3ccccc3)cc1)n2C [3(2), (R)-2-[4-(N-phenylcarbonylamidino)-phenylaminomethyl]-1-methyl-5-[1-(n-propyloxycarbonylmethylamino)-1-(pyrrolidinocarbonyl)-ethyl]-benzimidazole] | 
good oral resorption | CCCCOC(=O)CN[C@@](C)(C(=O)N1CCCC1)c1ccc2c(c1)nc(CNc1ccc(C(=N)NC(=O)c3ccccc3)cc1)n2C [Example 2, (R)-2-[4-(N-phenylcarbonylamidino)-phenylaminomethyl]-1-methyl-5-[1-(n-butyloxycarbonylmethylamino)-1-(pyrrolidinocarbonyl)-ethyl]-benzimidazole] | 
 | CCOC(=O)CNC(C)(C(=O)N1CC=CC1)c1ccc2c(c1)nc(CNc1ccc(C(=N)N)cc1)n2C.Cl.Cl (centres unmarked) [A, 2-(4-amidinophenylaminomethyl)-1-methyl-5-[1-(ethoxycarbonylmethylamino)-1-(2,5-dihydropyrrolocarbonyl)-ethyl]-benzimidazole-dihydrochloride] | 0.13
 | C[C@@H]1CCCN1C(=O)[C@](C)(NCC(=O)O)c1ccc2c(c1)nc(CNc1ccc(C(=N)N)cc1)n2C.Cl.Cl [B, (R)-2-(4-amidinophenylaminomethyl)-1-methyl-5-[1-(carboxymethylamino)-1-[(R,S)-2-methyl-pyrrolidinocarbonyl]-ethyl]-benzimidazole-dihydrochloride] | 0.12
